Here are results for five compounds from patent US20240067693A1, “POLYPEPTIDES AND USES THEREOF” (MEDIMMUNE LIMITED, priority 2020, published 2024).

The structures appear in SMILES notation. Numbered stars: 1 amine (or outer) side, 2 acyl side, 3 side chain; on linkers, the order of the positions; unused ones are H or OH. Bridge positions count the residues as written; N and C are the ends. Square brackets hold non-standard residues; d marks the D form. Side chains are listed from the residue outwards. Peptide text beside a SMILES is read from it. * marks the point of attachment. C18 diacid = O=C(O)CCCCCCCCCCCCCCCCC(=O)*; γGlu = O=C(O)[C@H](CCC(=O)[*:2])N[*:1]; Aib = CC(C)(N)C(=O)O

The target of experiment [1] is T1, human calcitonin receptor (hCTR) (Homo sapiens, UniProt P30988).
T1 construct: expressed in transfected cells
T1 sequence (P30988 25-474): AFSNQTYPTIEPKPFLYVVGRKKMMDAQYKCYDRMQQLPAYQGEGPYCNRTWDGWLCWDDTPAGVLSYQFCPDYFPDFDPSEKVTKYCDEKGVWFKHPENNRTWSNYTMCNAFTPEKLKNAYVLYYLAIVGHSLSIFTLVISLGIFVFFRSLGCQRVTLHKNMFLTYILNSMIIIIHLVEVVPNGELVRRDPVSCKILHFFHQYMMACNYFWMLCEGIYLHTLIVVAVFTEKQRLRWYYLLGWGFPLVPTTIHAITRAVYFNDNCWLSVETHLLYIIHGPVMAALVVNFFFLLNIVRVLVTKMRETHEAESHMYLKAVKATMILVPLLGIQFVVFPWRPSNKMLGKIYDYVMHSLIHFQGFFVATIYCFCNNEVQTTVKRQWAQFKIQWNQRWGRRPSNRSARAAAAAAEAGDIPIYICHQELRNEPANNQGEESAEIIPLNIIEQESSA
The experiment is described as follows: cAMP production in 1321N1 cells with stable recombinant expression of human calcitonin receptor (hCTR). The conditions noted are these: cAMP, 1321N1 cells, assay buffer with 0.1% BSA; read-out: EC50 (pM) hCTR. The experiment is classed as cell-based. The method in brief:
(§1)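 Receptor-expressing cells (human receptors in 1321N1, rat receptors in HEK) incubated 30 min at room temperature with peptide in HBSS/HEPES pH 7.4, 0.1% BSA, 0.5 mM IBMX. cAMP read by HTRF; EC50 from 4-parameter fit as % of maximal amylin or calcitonin response.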
For orientation: Cyclic AMP is a second messenger, typically raised through Gs and lowered through Gi signalling.

The target in experiment [2] is T2, human amylin receptor (calcitonin receptor co-expressed with receptor activity modifying protein, RAMP3) (hAMYR3) (Homo sapiens, UniProt O60896+P30988).
T2 construct: expressed in transfected cells
T2 sequence (P30988 25-474): T1 sequence (P30988 25-474)
T2 sequence (O60896 24-148 partner): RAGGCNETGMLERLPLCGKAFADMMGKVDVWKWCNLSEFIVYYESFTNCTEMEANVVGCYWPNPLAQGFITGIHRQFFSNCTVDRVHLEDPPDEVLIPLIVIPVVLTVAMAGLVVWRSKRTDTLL
The experiment is described as follows: cAMP production in 1321N1 cells with stable recombinant expression of human amylin receptor (hAMYR3). In kind it is cell-based. The conditions noted are these: for Ratio (selectivity hAMYR vs hCTR, ratio of EC50 values at the two receptors): EC50 hCTR / EC50 hAMYR3; for EC50: cAMP, 1321N1 cells, assay buffer with 0.1% BSA, read-out: EC50 (pM) hAMYR3. The method in brief:
as §1

For the compound `CC[C@H](C)[C@H](NC(=O)[C@@H]1CCCN1C(=O)CNC(=O)[C@H](Cc1ccccc1)NC(=O)[C@H](CC(N)=O)NC(=O)C(C)(C)NC(=O)[C@H](CO)NC(=O)[C@H](CO)NC(=O)[C@H](Cc1c[nH]cn1)NC(=O)[C@@H](NC(=O)[C@H](CC(C)C)NC(=O)[C@H](Cc1ccccc1)NC(=O)[C@H](CC(N)=O)NC(=O)[C@H](C)NC(=O)[C@H](CC(C)C)NC(=O)[C@H](CCCNC(=N)N)NC(=O)[C@H](CCC(N)=O)NC(=O)[C@@H](NC(=O)[C@H](C)NC(=O)[C@@H]1CSSC[C@H](NC(=O)[C@@H](N)CCCCNC(=O)CC[C@H](NC(=O)CCCCCCCCCCCCCCCCC(=O)O)C(=O)O)C(=O)N[C@@H](CC(N)=O)C(=O)N[C@@H]([C@@H](C)O)C(=O)N[C@@H](C)C(=O)N[C@@H]([C@@H](C)O)C(=O)N1)[C@@H](C)O)C(C)C)C(=O)N[C@@H](CC(C)C)C(=O)N1CCC[C@@H]1C(=O)N1CCC[C@H]1C(=O)N[C@H](C(=O)N[C@@H](CC(N)=O)C(=O)N[C@H](C(=O)NCC(=O)N[C@@H](CO)C(=O)N[C@@H](CC(N)=O)C(=O)N[C@H](C(=O)N[C@@H](Cc1ccc(O)cc1)C(N)=O)[C@@H](C)O)C(C)C)[C@@H](C)O` [Peptide 60, K(γE-C18diacid)[CNTATC]ATQRLANFLVHSS(Aib)NFGPIL(dP)PTNVGSNTY-amide] (H-K([γGlu-C18 diacid])CNTATCATQRLANFLVHSS[Aib]NFGPIL[dP]PTNVGSNTY-NH2; disulfide 2-7; N-terminus assumed), the half-maximal effective concentration (EC50) in experiment [1] was 1030 pM; in experiment [2], 96 pM. The “Ratio (selectivity hAMYR vs hCTR, ratio of EC50 values at the two receptors)” value in experiment [2] was 11.
The matching figures for `CC(C)C[C@H](NC(=O)[C@H](CCCNC(=N)N)NC(=O)[C@H](CCC(N)=O)NC(=O)[C@@H](NC(=O)[C@H](C)NC(=O)[C@@H]1CSSC[C@H](NC(=O)[C@H](CCCCN)NC(=O)[C@@H](N)CCCCNC(=O)CC[C@H](NC(=O)CCCCCCCCCCCCCCCCC(=O)O)C(=O)O)C(=O)N[C@@H](CC(N)=O)C(=O)N[C@@H]([C@@H](C)O)C(=O)N[C@@H](C)C(=O)N[C@@H]([C@@H](C)O)C(=O)N1)[C@@H](C)O)C(=O)N[C@@H](C)C(=O)N[C@@H](CC(N)=O)C(=O)N[C@@H](Cc1ccccc1)C(=O)N[C@@H](CC(C)C)C(=O)NC(C)(C)C(=O)N[C@@H](Cc1c[nH]cn1)C(=O)N[C@@H](CO)C(=O)N[C@@H](CO)C(=O)N[C@@H](CC(N)=O)C(=O)N[C@@H](CC(N)=O)C(=O)N[C@@H](Cc1ccccc1)C(=O)NCC(=O)N1CCC[C@H]1C(=O)NC(C)(C)C(=O)N[C@@H](CC(C)C)C(=O)N1CCC[C@H]1C(=O)N1CCC[C@H]1C(=O)N[C@H](C(=O)N[C@@H](CC(N)=O)C(=O)N[C@H](C(=O)NCC(=O)N[C@@H](CO)C(=O)N[C@@H](CC(N)=O)C(=O)N[C@H](C(=O)N[C@@H](Cc1ccc(O)cc1)C(N)=O)[C@@H](C)O)C(C)C)[C@@H](C)O` [Peptide 94, K(γE-C18diacid)K[CNTATC]ATQRLANFL(Aib)HSSNNFGP(Aib)LPPTNVGSNTY-amide] (H-K([γGlu-C18 diacid])KCNTATCATQRLANFL[Aib]HSSNNFGP[Aib]LPPTNVGSNTY-NH2; disulfide 3-8; N-terminus assumed): 1900 pM, 322 pM and 6.
The matching figures for `CC[C@H](C)[C@H](NC(=O)[C@@H]1CCCN1C(=O)CNC(=O)[C@H](Cc1ccccc1)NC(=O)[C@H](CC(N)=O)NC(=O)C(C)(C)NC(=O)[C@H](CO)NC(=O)[C@H](CO)NC(=O)[C@H](Cc1c[nH]cn1)NC(=O)[C@H](CCCNC(=N)N)NC(=O)[C@H](CC(C)C)NC(=O)[C@H](Cc1ccccc1)NC(=O)[C@H](CC(N)=O)NC(=O)[C@H](C)NC(=O)[C@H](CC(C)C)NC(=O)[C@H](CCCNC(=N)N)NC(=O)[C@H](CCC(N)=O)NC(=O)[C@@H](NC(=O)[C@H](C)NC(=O)[C@@H]1CSSC[C@H](NC(=O)[C@@H](N)CCCCNC(=O)CC[C@H](NC(=O)CC[C@H](NC(=O)CCCCCCCCCCCCCCCCC(=O)O)C(=O)O)C(=O)O)C(=O)N[C@@H](CC(N)=O)C(=O)N[C@@H]([C@@H](C)O)C(=O)N[C@@H](C)C(=O)N[C@@H]([C@@H](C)O)C(=O)N1)[C@@H](C)O)C(=O)N[C@@H](CC(C)C)C(=O)N1CCC[C@H]1C(=O)N1CCC[C@H]1C(=O)N[C@H](C(=O)N[C@@H](CCCNC(=N)N)C(=O)N[C@H](C(=O)NCC(=O)N[C@@H](CO)C(=O)N[C@@H](CC(N)=O)C(=O)N[C@H](C(=O)N[C@@H](Cc1ccc(O)cc1)C(N)=O)[C@@H](C)O)C(C)C)[C@@H](C)O` [Peptide 77, K(γE-γE-C18diacid)[CNTATC]ATQRLANFLRHSS(Aib)NFGPILPPTRVGSNTY-amide] (H-K([γGlu-γGlu-C18 diacid])CNTATCATQRLANFLRHSS[Aib]NFGPILPPTRVGSNTY-NH2; disulfide 2-7; N-terminus assumed): 2520 pM, 231 pM and 11.
Turning to `CC[C@H](C)[C@H](NC(=O)[C@@H]1CCCN1C(=O)CNC(=O)[C@H](Cc1ccccc1)NC(=O)[C@H](CC(N)=O)NC(=O)C(C)(C)NC(=O)[C@H](CO)NC(=O)[C@H](CO)NC(=O)[C@H](Cc1c[nH]cn1)NC(=O)[C@H](CCCNC(=N)N)NC(=O)[C@H](CC(C)C)NC(=O)[C@H](Cc1ccccc1)NC(=O)[C@H](CC(N)=O)NC(=O)[C@H](C)NC(=O)[C@H](CC(C)C)NC(=O)[C@H](CCCNC(=N)N)NC(=O)[C@H](CCC(N)=O)NC(=O)[C@@H](NC(=O)[C@H](C)NC(=O)[C@@H]1CSSC[C@H](NC(=O)[C@@H](N)CCCCNC(=O)CC[C@H](NC(=O)CC[C@H](NC(=O)CCCCCCCCCCCCCCCCC(=O)O)C(=O)O)C(=O)O)C(=O)N[C@@H](CC(N)=O)C(=O)N[C@@H]([C@@H](C)O)C(=O)N[C@@H](C)C(=O)N[C@@H]([C@@H](C)O)C(=O)N1)[C@@H](C)O)C(=O)N[C@@H](CC(C)C)C(=O)N1CCC[C@H]1C(=O)N1CCC[C@H]1C(=O)N[C@H](C(=O)NC(C)(C)C(=O)N[C@H](C(=O)NCC(=O)N[C@@H](CO)C(=O)N[C@@H](CC(N)=O)C(=O)N[C@H](C(=O)N[C@@H](Cc1ccc(O)cc1)C(N)=O)[C@@H](C)O)C(C)C)[C@@H](C)O` [Peptide 90, K(γE-γE-C18diacid)[CNTATC]ATQRLANFLRHSS(Aib)NFGPILPPT(Aib)VGSNTY-amide] (H-K([γGlu-γGlu-C18 diacid])CNTATCATQRLANFLRHSS[Aib]NFGPILPPT[Aib]VGSNTY-NH2; disulfide 2-7; N-terminus assumed), in experiment [1], the EC50 came to 15600 pM. Also, in experiment [2], the “Ratio (selectivity hAMYR vs hCTR, ratio of EC50 values at the two receptors)” value was determined as 15 and the EC50 was determined as 1060 pM.
The matching figures for `CC[C@H](C)[C@H](NC(=O)[C@@H]1CCCN1C(=O)CNC(=O)[C@H](Cc1ccccc1)NC(=O)[C@H](CC(N)=O)NC(=O)C(C)(C)NC(=O)[C@H](CO)NC(=O)[C@H](CO)NC(=O)[C@H](Cc1c[nH]cn1)NC(=O)[C@@H](NC(=O)[C@H](CC(C)C)NC(=O)[C@H](Cc1ccccc1)NC(=O)[C@H](CC(N)=O)NC(=O)[C@H](C)NC(=O)[C@H](CC(C)C)NC(=O)[C@H](CCCNC(=N)N)NC(=O)[C@H](CCC(N)=O)NC(=O)[C@@H](NC(=O)[C@H](C)NC(=O)[C@@H]1CSSC[C@H](NC(=O)[C@@H](N)CCCCNC(=O)CC[C@H](NC(=O)CC[C@H](NC(=O)CCCCCCCCCCCCCCCCC(=O)O)C(=O)O)C(=O)O)C(=O)N[C@@H](CC(N)=O)C(=O)N[C@@H]([C@@H](C)O)C(=O)N[C@@H](C)C(=O)N[C@@H]([C@@H](C)O)C(=O)N1)[C@@H](C)O)C(C)C)C(=O)N[C@@H](CC(C)C)C(=O)N1CCC[C@H]1C(=O)N1CCC[C@H]1C(=O)N[C@H](C(=O)N[C@@H](CCCNC(=N)N)C(=O)N[C@H](C(=O)NCC(=O)N[C@@H](CO)C(=O)N[C@@H](CC(N)=O)C(=O)N[C@H](C(=O)N[C@@H](Cc1ccc(O)cc1)C(N)=O)[C@@H](C)O)C(C)C)[C@@H](C)O` [Peptide 67, K(γE-γE-C18diacid)[CNTATC]ATQRLANFLVHSS(Aib)NFGPILPPTRVGSNTY-amide] (H-K([γGlu-γGlu-C18 diacid])CNTATCATQRLANFLVHSS[Aib]NFGPILPPTRVGSNTY-NH2; disulfide 2-7; N-terminus assumed): 4010 pM, 30 and 132 pM.

As a reminder, the EC50 is the midpoint of the concentration-response curve.
